Measured values reported in patent US12263166B2, “Methods of treating cancers having a BRCA1 and/or BRCA2 mutation(s)” (Dana-Farber Cancer Institute, Inc., priority 2017, dated 2025).

Legend:
[1] = system: UWB1.289 (BRCA1-mutant ovarian cancer cell line); test: Colony formation (sensitivity) assay in UWB1.289; assay type: cell-based; settings: BRCA1-mutant UWB1.289, compared to UWB1.289+BRCA1
Method: (§1) Cells were transfected with siRNA or plasmid 18-24 h before being plated for colony formation assays. Cells were counted and plated in triplicates in 6-well plates. For treatment with ML323, plated cells were allowed to adhere overnight before treatment with ML323 the next day. At the end of the experiment, cells were fixed with methanol for 10 min at −20° C. then stained with crystal violet. Quantification of cell growth area was performed with ImageJ.

[2] = system: BRCA1 deficient MDA-MB-436 cells; test: Replication combing (fiber) assay in MDA-MB-436 after hydroxyurea; assay type: cell-based; settings: 10 μM ML323 for 24 h; effect not increased with USP1 silencing
Method: FIG. 20B. Schematic of the experimental design for the fiber assay, graphical quantification of fiber assay measuring replication fork stability in MDA-MB-436 cells following treatment with either siCtrl or siUSP1, untreated or treated with 10 μM of ML323 for 24 h.
Replication combing assay was performed using the FiberComb machine (Genomic Vision, Bagneux, France). Br iefly, cells were treated with CldU, IdU then HU, with 3 PBS washes between each treatment. Cells were then trypsinized, counted and embedded in low melting point agarose plugs, then treated with proteinase k overnight. Agarose plugs were then washed and digested with agarase. Agarase-treated samples were then poured into FiberComb wells and combed onto silanized coverslips. Coverslips were probed with rat anti-BrdU antibody (clone BU1/75 (ICR1) specific to CldU, Life Technologies, Woburn, MA, #MA1-82088) and mouse anti-BrdU Antibody (specific to IdU, BD Biosciences, Woburn, MA, #347580) and visualized by fluorescence microscopy. Pictures were taken of at least 100 fibers per condition. Fibers were measured with ImageJ and graphed.

[3] = target: T1, wild-type, full-length USP1 (Homo sapiens, UniProt O94782); test: Ub-CHOP2 deubiquitination assay, WT-USP1; assay type: biochemical
T1 construct: purchased Boston Biochem / R&D systems E564
T1 sequence (O94782 1-785): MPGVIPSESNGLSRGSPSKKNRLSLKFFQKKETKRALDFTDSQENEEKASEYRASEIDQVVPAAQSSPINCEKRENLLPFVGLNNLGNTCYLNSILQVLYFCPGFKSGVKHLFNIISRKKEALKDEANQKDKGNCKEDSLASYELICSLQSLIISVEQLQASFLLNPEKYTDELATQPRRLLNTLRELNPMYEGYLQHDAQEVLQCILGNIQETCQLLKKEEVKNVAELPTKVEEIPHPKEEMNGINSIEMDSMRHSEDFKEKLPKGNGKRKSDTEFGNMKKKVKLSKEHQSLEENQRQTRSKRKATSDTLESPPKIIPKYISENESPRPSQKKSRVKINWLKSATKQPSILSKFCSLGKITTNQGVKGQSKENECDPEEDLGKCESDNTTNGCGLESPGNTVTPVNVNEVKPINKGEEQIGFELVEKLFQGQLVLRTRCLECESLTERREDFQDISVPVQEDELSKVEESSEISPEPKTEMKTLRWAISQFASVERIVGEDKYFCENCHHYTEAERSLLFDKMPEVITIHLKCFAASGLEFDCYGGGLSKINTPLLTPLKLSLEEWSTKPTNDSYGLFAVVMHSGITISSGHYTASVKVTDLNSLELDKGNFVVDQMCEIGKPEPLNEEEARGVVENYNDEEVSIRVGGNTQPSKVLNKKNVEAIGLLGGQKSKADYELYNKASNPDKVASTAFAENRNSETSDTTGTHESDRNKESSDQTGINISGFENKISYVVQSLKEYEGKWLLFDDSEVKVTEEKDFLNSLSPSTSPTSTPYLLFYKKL
Method: (§2) FIG. 11B. Ub-CHOP2 assay of WT-USP1 and Trunc-USP1 with and without USP1 inhibitor ML323.
(§3) Preparation of recombinant USP1 and UAF1 wild type and mutant proteins in SF9 cells and Ub-AMC assays were performed by the method as described in Cohn M A, Kowal P, et al. A UAF1-containing multisubunit protein complex regulates the Fanconi anemia pathway. Molecular cell. 2007; 28(5):786-97. Ub-CHOP2 assays (Life Sensors, Malvern, PA, PR1101) were performed according to manufacturer's instructions. Ub-AMC assays were performed by the methods as described in Cohn M A et al., UAF1 is a subunit of multiple deubiquitinating enzyme complexes. The Journal of biological chemistry. 2009; 284(8):5343-51; Cohn M A, et al. A UAF1-containing multisubunit protein complex regulates the Fanconi anemia pathway. Molecular cell. 2007; 28(5):786-97; Kee Y, et al., WDR20 regulates activity of the USP12 UAF1 deubiquitinating enzyme complex. Journal of Biological Chemistry. 2010; 285(15):11252-7; and Mistry H, Hsieh G, et al. Small-molecule inhibitors of USP1 target ID1 degradation in leukemic cells. Molecular cancer therapeutics. 2013; 12(12):2651-62.

[4] = system: USP1-Trunc; test: Ub-CHOP2 deubiquitination assay, Trunc-USP1; assay type: biochemical
Method: as §2, §3

[5] = target: T2, full-length USP1 / forked DNA (Homo sapiens, UniProt O94782); test: Electromobility shift assay of USP1 with forked DNA; assay type: binding; settings: 0-300 nM USP1, 0-1000 nM ML323, forked DNA
T2 construct: purchased Boston Biochem / R&D systems E564
T2 sequence (O94782 1-785): T1 sequence (O94782 1-785)
Method: FIG. 11C. Electromobility shift assay of 0-300 nM of USP1 incubated with 0-1000 nM of ML323 and forked DNA.
Recombinant USP1 and UAF1 proteins from R&D systems (E564, E566) were used for some electromobility shift assays and in vitro deubiquitination assays. Electromobility shift assays were performed by pre-incubating fluorophore (Cy3)-tagged DNA and purified protein in binding buffer (20 mM Hepes (pH 7.6), 0.1M KCl, 5 mM MgCl2, 3% (v/v) glycerol, 0.25 mg/ml BSA, 0.05 mM EDTA, 0.5 mM DTT, 0.01% (v/v) NP-40) for 30 min on ice. Samples were then loaded onto 6% polyacrylamide gels and ran at 65V in 0.5× TBE for 135 min at 4° C. Gels were visualized using the LAS-4000 imaging system (GE Healthcare Life Sciences, Pittsburgh, PA). DNA used for Ub-AMC, Ub-CHOP2 and electromobility shift assay were 40 bp in length and were designed to have minimal potential of secondary structure formation.

[6] = system: PARP inhibitor resistant UWB1.289 SYR14 cells; test: Clonogenic assay in PARP inhibitor resistant UWB1.289 SYR14; assay type: cell-based
Method: FIG. 23A. Quantification of colonies after clonogenic assay of parental BRCA1-deficient UWB1.289 cells and PARP inhibitor resistant UWB1.289 SYR14 cells treated with USP1 inhibitor ML323.
as §1

[7] = system: PARP inhibitor resistant BRCA1-deficient cells (53BP1 silencing); test: Sensitivity of PARP inhibitor resistant cells with restored HR (53BP1 silencing); assay type: cell-based
[8] = target: T3, USP1 (Homo sapiens, UniProt O94782); test: Western blot of USP1 with and without ML323; assay type: cell-based
T3 construct: endogenous in cells
T3 sequence (Q8TAF3 whole entry partner, one chain of several): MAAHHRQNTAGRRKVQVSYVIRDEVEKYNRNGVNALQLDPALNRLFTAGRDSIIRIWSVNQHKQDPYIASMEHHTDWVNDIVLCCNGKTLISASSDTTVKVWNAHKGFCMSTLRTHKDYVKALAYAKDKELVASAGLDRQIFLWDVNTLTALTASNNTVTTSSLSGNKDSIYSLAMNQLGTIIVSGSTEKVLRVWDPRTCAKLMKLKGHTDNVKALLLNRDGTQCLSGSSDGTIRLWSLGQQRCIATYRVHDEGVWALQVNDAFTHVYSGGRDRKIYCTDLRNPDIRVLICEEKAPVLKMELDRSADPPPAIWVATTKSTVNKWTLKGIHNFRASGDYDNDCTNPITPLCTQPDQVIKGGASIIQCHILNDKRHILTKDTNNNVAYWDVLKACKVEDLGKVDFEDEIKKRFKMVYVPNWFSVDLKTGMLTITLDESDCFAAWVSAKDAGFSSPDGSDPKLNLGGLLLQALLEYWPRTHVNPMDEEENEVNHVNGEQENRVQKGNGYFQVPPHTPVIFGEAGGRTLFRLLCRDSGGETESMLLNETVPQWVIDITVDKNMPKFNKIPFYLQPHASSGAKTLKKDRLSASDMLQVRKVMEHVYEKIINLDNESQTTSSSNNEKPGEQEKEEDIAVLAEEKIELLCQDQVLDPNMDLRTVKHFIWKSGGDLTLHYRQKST
Method: FIG. 8F. Western blot of USP1 with and without ML323 treatment. Following inhibition of USP1 deubiquitinating enzyme (DUB) activity, USP1 autocleavage is inhibited, resulting in a more intense top USP1 band. In addition, Ser313 phosphorylation is induced, resulting in a higher MW band in the blot.
Cells were lysed with lysis buffer (300 mM NaCl, 50 mM Tris-Cl, 1 mM EDTA, 0.5% NP-40), lysates resolved on denaturing Nupage (Invitrogen, Carlsbad, CA) polyacrylamide gels and transferred onto nitrocellulose membranes. Membranes were blocked with 5% milk in TBST, and probed with primary and secondary antibodies respectively, then detected with chemiluminescence (Western Lightning, Perkin Elmer, Waltham, MA).

[9] = system: BRCA1-deficient UWB1.289 cells; test: Colony assay, ML323 combined with Olaparib in UWB1.289; assay type: cell-based; settings: 0 nM or 25 nM Olaparib and increasing doses of ML323
Method: FIG. 14. USP1 inhibition is non-epistatic with PARP inhibitors in BRCA1 deficient cells (Top: BRCA1-deficient UWB1.289 cells treated with 0 nM or 25 nM of Olaparib and increasing doses of USP1 inhibitor ML323. Bottom: Representative pictures of UWB1.289 colonies).
as §1

[10] = system: FANCD2-Ub; settings: cited from earlier work

## Cc1cnc(-c2ccccc2C(C)C)nc1NCc1ccc(-n2ccnn2)cc1 [ML323]
[1]
  growth of UWB1.289 cells: reduced growth
[2]
  fork degradation following hydroxyurea treatment: enhanced fork degradation
[3]
  DUB activity of wild-type, full-length USP1: inhibits
[4]
  DUB activity of USP1-Trunc: inhibits
[5]
  DNA binding activity of full-length USP1: does not interfere
[6]
  sensitivity of PARP inhibitor resistant cells resulting from fork stabilization: remained sensitive
[7]
  sensitivity of PARP inhibitor resistant cells resulting from restoration of HR: resistant
[8]
  USP1 Ser313 phosphorylation: induced
  USP1 autocleavage: inhibited
[9]
  interaction of USP1 inhibition with PARP inhibitors in BRCA1 deficient cells: non-epistatic
[10]
  FANCD2 deubiquitination: blocks
  cellular FANCD2-Ub level: accumulation
